The record followed here is patent US20250255847A1, “[…]s: Novel Drugs for Triple Negative Breast Cancer” (SIMMARON RSEARCH INC, priority 2024, published 2025).

The assay has as its target T1, STAT3 (pY705, pS727) (Homo sapiens, UniProt P40763).
T1 construct: endogenous in cells; host or cells: MDA-MB-468
The experiment in a line: JAK/STAT phospho antibody array, phospho-STAT3 in EGF-treated MDA-MB-468 cells. As to conditions: EGF (25 ng) + 5 nM compound, 6 hrs. In kind it is cell-based. As to the method: FIG. 5 illustrates an embodiment of the present invention and illustrates evaluations of SIM-1 and SIM-2 as STAT3 inhibitors. (A) Protein thermal shift assay was performed to assess the melting of purified recombinant STAT3 (blue; 0.5 μg protein) (Tm=melting temperature=68.88° C.). The representative melting curves were derived after adding SIM-1 (red; 4 nM), SIM-2 (purple; 8 nM), and positive control stattic (grey; 20 nM) to the STAT3 protein. The differences of melting temperature (ΔTm) between pure protein and protein+ligands are −4.54° C., −4.16° C., and 0.39° C. for SIM-1, SIM-2, and stattic (ΔTm^cut-off>2° C.). […] Each colored arrowhead represents a specific phosphoprotein, and the description was added in the bottom of array images. […] Similarly, full-length STAT5b protein melting was assessed with (J) SIM-1, (K) SIM-2, and (L) stattic. […]
Protein array. […] After that, cells were scrapped with 1×TBS, lysed with lysis buffer supplemented with protease and phosphatase inhibitor cocktail, measured for total protein concentration ([…]), diluted 5 times with assay diluent buffer and then applied along with biotin-labeled probes on the glass membrane coated with antibodies. […]
Next, the present invention evaluated if these compounds as disclosed in the present invention as small-molecule inhibitors targeting STAT3 activation, inhibited the activation of STAT3, but not other STATs. […]

T1 sequence (P40763 whole entry): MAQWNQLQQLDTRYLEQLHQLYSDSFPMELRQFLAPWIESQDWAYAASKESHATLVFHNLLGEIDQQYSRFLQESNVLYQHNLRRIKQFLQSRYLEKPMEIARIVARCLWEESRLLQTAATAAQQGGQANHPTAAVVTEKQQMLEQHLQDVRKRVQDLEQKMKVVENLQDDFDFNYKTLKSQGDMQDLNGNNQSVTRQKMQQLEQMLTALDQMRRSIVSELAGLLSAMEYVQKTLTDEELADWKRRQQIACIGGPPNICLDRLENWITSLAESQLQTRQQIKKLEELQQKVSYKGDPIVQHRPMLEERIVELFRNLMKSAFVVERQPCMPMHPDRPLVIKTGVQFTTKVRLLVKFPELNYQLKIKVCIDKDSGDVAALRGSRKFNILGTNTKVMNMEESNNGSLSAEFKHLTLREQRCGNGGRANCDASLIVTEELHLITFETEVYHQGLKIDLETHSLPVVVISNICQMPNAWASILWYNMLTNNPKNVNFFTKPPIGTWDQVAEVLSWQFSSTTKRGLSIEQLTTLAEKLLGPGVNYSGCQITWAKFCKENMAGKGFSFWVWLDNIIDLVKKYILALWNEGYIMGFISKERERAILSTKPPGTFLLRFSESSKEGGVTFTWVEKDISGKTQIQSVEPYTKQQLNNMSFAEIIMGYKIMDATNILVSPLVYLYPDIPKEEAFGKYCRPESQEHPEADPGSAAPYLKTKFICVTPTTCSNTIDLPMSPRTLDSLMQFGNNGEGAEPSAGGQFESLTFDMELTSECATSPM

`O=C(O)CCC(=O)NCc1csc2ccc(Cl)cc12` [SIM-1, 4-[(5-chloro-1-benzothiophen-3-yl)methylamino]-4-oxobutanoic acid]: the “levels of pY705 STAT3” value was “strongly and selectively suppressed”. As to `CCOC(=O)c1c(NC(C)=O)sc2c(Cl)c(/C=N/O)ccc12` [SIM-2, ethyl 2-acetamido-7-chloro-6-(hydroxyiminomethyl)-1-benzothiophene-3-carboxylate], the “levels of pY705 STAT3” value was “strongly and selectively suppressed”.
